Laboratory results: patent US20050170485A1, “Culture having phenol oxidase-like activity” (priority 2002, published 2005)

How the values were obtained:
Format in all cases: biochemical
[1] = test system: culture of Flammulina velutipes strain IFO 30601; test: Decolorization / oxidative degradation / oxidative polymerization of pigments and lignin by the culture; conditions: for specificity of the culture compared with bilirubin oxidase from the genus Myrothecium: Table 3; for reaction of the substrate catalyzed by the culture (in words): neutral conditions; for Specific Activity, Culture: reaction pH 7.0, 25° C., without sign = degradation or decolorization, minus = polymerization activity
Excerpt: The decolorization activity on the respective dyes can be evaluated by measuring as the dye, Evans' Blue, Acid Blue 80, Remazol Brilliant Blue R and Acid Violet 17 in the step c) for their absorbance at 600 nm, 600 nm, 600 nm and 550 nm respectively. In addition, regarding the lignin, the oxidative degradation activity on the respective dyes can be evaluated by measuring the absorbance at 450 nm in the step c). The oxidative polymerization activity on the respective dyes can be evaluated by measuring as the dye, Indigo Carmine and Natural Orange 6 in the step c) for their absorbance at 600 nm and 450 nm respectively.
Next, chemical changes of various substrates generated by the action of the culture for the substrate specificity of the culture obtained in (2) of Example 1 was examined by determining a change in the absorbance of the buffer containing each substrate.
As the substrate, commercially available pigments (Evans' Blue, Acid Blue 80, Remazol Brilliant Blue R, Indigo Carmine, Acid Violet 17, Natural Orange) and lignin (trade name: Lignin Alkali, manufactured by Tokyo Kasei) were used.
(§1) Concretely, 950 μl of 105.3 mM sodium phosphate buffer (pH 7.0) containing a substrate adjusted to have a final concentration as shown in Table 2 was pre-incubated at 25° C. for 5 minutes. Next, 50 μl of the culture solution was added to the resulting product, and thereafter, the mixture was reacted in a cuvette. The absorbance for each substrate was determined at a measuring wavelength with a spectrophotometer (manufactured by Shimadzu Corporation, trade name: UV-2450). For the comparison, the examination was also made for bilirubin oxidase from a strain belonging to the genus Myrothecium in the same manner by replacing the above-mentioned buffer with 105.3 mM Tris-HCl buffer (pH 8.0).
(§2) Here, 1 U (unit) of the activity was defined as an amount for increasing the absorbance by 1 per one minute. In Table 3, a specific activity shown without a sign indicates degradation activity or decolorization activity, and a specific activity shown with—(minus) indicates polymerization activity.

[2] = molecular target: T1, bilirubin oxidase from a strain belonging to the genus Myrothecium (Albifimbria verrucaria, UniProt Q12737); test: Decolorization / degradation / polymerization of pigments and lignin by bilirubin oxidase (comparison); conditions: reaction pH 8.0; without sign = degradation or decolorization, minus = polymerization activity
T1 sequence (Q12737 39-572): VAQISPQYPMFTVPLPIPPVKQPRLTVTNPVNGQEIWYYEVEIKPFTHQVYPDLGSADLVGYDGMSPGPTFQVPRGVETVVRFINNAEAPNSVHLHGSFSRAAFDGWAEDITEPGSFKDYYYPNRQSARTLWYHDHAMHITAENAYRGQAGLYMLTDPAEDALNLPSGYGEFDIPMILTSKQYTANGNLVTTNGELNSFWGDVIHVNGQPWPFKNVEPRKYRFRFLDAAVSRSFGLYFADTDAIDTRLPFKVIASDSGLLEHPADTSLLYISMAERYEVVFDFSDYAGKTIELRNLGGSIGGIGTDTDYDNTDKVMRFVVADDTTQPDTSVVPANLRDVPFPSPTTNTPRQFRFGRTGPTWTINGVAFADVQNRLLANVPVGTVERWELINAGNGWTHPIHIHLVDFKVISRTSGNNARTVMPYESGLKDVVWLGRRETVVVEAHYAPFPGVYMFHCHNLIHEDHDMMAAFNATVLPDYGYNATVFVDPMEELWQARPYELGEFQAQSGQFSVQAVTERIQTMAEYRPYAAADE
Method: as §1, §2

[3] = molecular target: T2, bilirubin oxidase from the strain belonging to the genus Myrothecium (Albifimbria verrucaria, UniProt Q12737); test: Direct oxidation reaction by bilirubin oxidase (comparison); set-up: concentration or dose not given beside the values; conditions: reaction pH 7.0; 2-chloro 1,4-phenylenediamine = 100
T2 sequence (Q12737 39-572): T1 sequence (Q12737 39-572)
Method: (§3) Concretely, 180 μl of 0.89 mM sodium phosphate buffer (pH 7.0) containing […] substrate was pre-incubated in wells of a 96-well microplate [manufactured by Corning, Costor (registered trademark) 3368] at 25° C. for 1 minute. Next, 20 μl of the above-mentioned culture solution was added to the resulting mixture. A change in absorbance at 490 nm, 450 nm or 405 nm was determined for the resulting product, depending on the substrate. Here, 1 U (unit) of the activity regarding the direct oxidative reaction was defined as an amount for increasing the absorbance by 1 per one minute.
(§4) In addition, for the comparison, the substrate specificities at pH 7.0 for laccase from Japanese lacquer and bilirubin oxidase from the strain belonging to the genus Myrothecium were also examined in the same manner.
The relative activity (%) for each substrate is shown in Table 7, in which the measured value for a case where a representative chemical dye 2-chloro 1,4-phenylenediamine was used as a substrate is 100.

[4] = test system: culture of Flammulina velutipes strain IFO 30601; test: Oxidative coupling reaction with 4-aminoantipyrine by the culture
Method: Next, the oxidative coupling reaction of the culture obtained in (2) in Example 1 mentioned above was determined by using color development as an index by the oxidative condensation of the substrate (hydrogen donor) with 4-aminoantipyrine, catalyzed by the culture of the present invention.
As the hydrogen donors, there were used phenolic compounds (phenol, 2-methoxyphenol, 2,6-dimethoxyphenol, catechol, resorcinol, hydroquinone, pyrogallol, gallic acid, propyl gallate, 1-naphthol, catechin), aminophenolic compounds (o-aminophenol, m-aminophenol, p-aminophenol), diaminophenolic compounds (o-phenylenediamine, m-phenylenediamine, p-phenylenediamine), and heterocyclic compounds (5-hydroxyindole, 2,6-diaminopyridine).
The above-mentioned culture solution was added to a reaction system containing 4-aminoantipyrine and an optional hydrogen donor. Thereafter, the activity of the culture of the present invention was assayed by determining a change in absorbance at 490 nm for the phenolic compound, the diaminophenolic compound and the heterocyclic compound, or determining a change in absorbance at 450 nm for the aminophenolic compound. As to a substrate hardly soluble in water, there was used one obtained by dissolving the substrate in a small amount of dimethyl sulfoxide and diluting the resulting solution with deionized water to a desired concentration. In Table 4, DMSO is an abbreviation for dimethyl sulfoxide.
(§5) Concretely, 190 μl of 105.3 mM phosphate buffer (pH 7.0) containing 0.4 μmol of a substrate and 4.0 μmol of 4-aminoantipyrine was pre-incubated in wells of a 96-well microplate [manufactured by Corning, Costor (registered trademark) 3368] at 25° C. for 1 minute. Next, 10 μl of the above-mentioned culture solution was added to the resulting mixture, and thereafter, the mixture was incubated for 1 hour. A change in absorbance at 490 nm or 450 nm was determined for the resulting product. One unit (U) of the activity regarding the oxidative coupling reaction was defined as an amount for increasing the absorbance by 1 per one minute.

[5] = test system: culture of Flammulina velutipes strain IFO 30601; test: Substrate specificity of the culture (phenol oxidase-like activity, Table 1); conditions: pH 7.0; determined wavelength per substrate (Table 1)
[6] = test system: culture of Flammulina velutipes strain IFO 30601; test: Direct oxidation reaction by the culture
Method: Further, the direct oxidation reaction of the culture obtained in the above-mentioned example was determined by using color development due to oxidative polymerization of a substrate generated by the direct action of the culture of the present invention on the substrate as an index.
As the substrates, there were used diaminophenolic compounds (2-chloro 1,4-phenylenediamine, p-phenylenediamine, 2,5-diaminotoluene, N-phenyl-p-phenylenediamine, toluylene-3,4-diamine, m-phenylenediamine), aminophenolic compounds (o-aminophenol, m-aminophenol, 5-amino-o-cresol, p-aminophenol, p-methylaminophenol), and phenolic compounds (2,6-dimethoxyphenol, catechol, resorcinol, hydroquinone, pyrogallol, gallic acid, propyl gallate, 1-naphthol, […], 2,3,4-trihydroxybenzophenone, 2,3,4,4-tetrahydroxybenzophenone). As to a substrate hardly soluble in water, there was used one obtained by dissolving the substrate in a small amount of dimethyl sulfoxide and diluting the resulting solution with deionized distilled water to a desired concentration. In Table 6, %” indicates volume/volume %.
as §3

[7] = test system: laccase from Japanese lacquer; test: Direct oxidation reaction by laccase (comparison); conditions: reaction pH 7.0; 2-chloro 1,4-phenylenediamine = 100
Method: Next, 20 μl of the above-mentioned culture solution was added to the resulting mixture. A change in absorbance at 490 nm, 450 nm or 405 nm was determined for the resulting product, depending on the substrate. Here, 1 U (unit) of the activity regarding the direct oxidative reaction was defined as an amount for increasing the absorbance by 1 per one minute.
as §4

[8] = molecular target: T3, bilirubin oxidase from the strain of the genus Myrothecium (Albifimbria verrucaria, UniProt Q12737); test: Oxidative coupling reaction with 4-aminoantipyrine by bilirubin oxidase (comparison); conditions: reaction pH 8.0, substrate 2.0 mM
T3 sequence (Q12737 39-572): T1 sequence (Q12737 39-572)
Method: as §5
In addition, for the comparison, the examination was made in the same manner for bilirubin oxidase from the strain of the genus Myrothecium except that the above-mentioned buffer was replaced with 105.3 mM Tris-HCl buffer (pH 8.0).

[9] = pH 7.0, relative activities of Table 7

Row | SMILES | specificity of the culture compared with bilirubin oxidase from the genus Myrothecium [1] | reaction of the substrate catalyzed by the culture (in words) [1] | Specific Activity, Culture [1] | Specific Activity, Bilirubin Oxidase from Strain Belonging to Genus Myrothecium [2] | further results
1 | O=C1/C(=C2\Nc3ccc(S(=O)(=O)[O-])cc3C2=O)Nc2ccc(S(=O)(=O)[O-])cc21.[Na+].[Na+] [Indigo Carmine] | significantly differs | oxidative polymerization reaction | −0.22 U/mg Protein | 0.46 U/mg Protein | –
2 | Cc1cc(-c2ccc(/N=N/c3ccc4c(S(=O)(=O)[O-])cc(S(=O)(=O)[O-])c(N)c4c3O)c(C)c2)ccc1/N=N/c1ccc2c(S(=O)(=O)[O-])cc(S(=O)(=O)[O-])c(N)c2c1O.[Na+].[Na+].[Na+].[Na+] [Evans' Blue] | – | – | 0.32 U/mg Protein | 1.22 U/mg Protein | –
3 | CCN(CC)c1ccc(C(=C2C=CC(=[N+](CC)Cc3cccc(S(=O)(=O)[O-])c3)C=C2)c2ccc(N(CC)Cc3cccc(S(=O)(=O)[O-])c3)cc2)cc1.[Na+] [Acid Violet 17] | significantly differs | oxidative decolorization reaction | 0.12 U/mg Protein | −0.40 U/mg Protein | –
4 | O=C1C=C(O)C(=O)c2ccccc21 [Natural Orange 6] | – | oxidative polymerization reaction | −0.18 U/mg Protein | −0.11 U/mg Protein | –
5 | Nc1c(S(=O)(=O)[O-])cc(Nc2cccc(S(=O)(=O)CCOS(=O)(=O)[O-])c2)c2c1C(=O)c1ccccc1C2=O.[Na+].[Na+] [Remazol Brilliant Blue R] | significantly differs | strongly catalyzed | 0.97 U/mg Protein | −0.18 U/mg Protein | –
6 | Cc1cc(C)c(S(=O)(=O)[O-])c(C)c1Nc1ccc(Nc2c(C)cc(C)c(S(=O)(=O)[O-])c2C)c2c1C(=O)c1ccccc1C2=O.[Na+].[Na+] [Acid Blue 80] | – | – | 0.30 U/mg Protein | 0.39 U/mg Protein | –
7 | Nc1ccc(O)cc1 [p-Aminophenol] | – | – | – | – | Relative Activity, Bilirubin Oxidase from Strain Belonging to Genus Myrothecium (direct oxidation) [3]: 70%; activity of the culture for the substrate in words, oxidative coupling reaction ([4]; pH 7.0): especially high activity; Specific Activity, Culture (oxidative coupling with 4-aminoantipyrine) ([4]; reaction pH 7.0, 25° C., substrate 2.0 mM): 12.7 U/mg Protein; U (activity of the culture on the substrate) [5]: 0.072 U; activity of the culture for the substrate in words, direct oxidation reaction ([6]; pH 7.0): especially high activity; activity of the culture compared with bilirubin oxidase from the genus Myrothecium, direct oxidation [6, 9]: higher activity; activity of the culture compared with laccase from Japanese lacquer, direct oxidation [6, 9]: higher activity; Relative Activity, Culture (direct oxidation) ([6]; reaction pH 7.0, 2-chloro 1,4-phenylenediamine = 100): 235%; Relative Activity, Laccase from Japanese Lacquer (direct oxidation) [7]: 109%; Specific Activity, Bilirubin Oxidase from Strain Belonging to Genus Myrothecium (oxidative coupling with 4-aminoantipyrine) [8]: 7.0 U/mg Protein
